These results are taken from the supplement of paper PMC10307832.

What all share (test): relative viability (nuclei count vs DMSO), 5 days (fraction); higher = more cells survive
Compound in test [1]: O=C(Nc1cc(C(F)(F)F)cc(C(F)(F)F)c1)c1cc(Cl)ccc1O [IMD-0354]
The procedure, abridged:
(§1)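 Cells of lung cancer lines were placed in 1536-well plates and kept overnight at 37 °C. Pinning then delivered five library-drug doses (not always all listed), spaced by √10, onto plates anchored with vehicle, and the cells were left 5 days without changing medium. One step fixed, permeabilised and stained them with Hoechst, and MetaXpress counted nuclei in 4× images. Viability, as a median over plates, is treated-well nuclei divided by vehicle-well nuclei, with acceptance only at control CV below 25% and at least one doubling.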

Compound in test [2]: Cc1cnc(CNC(=O)c2c(=O)c3ccc(N4CCCN(C)CC4)nc3n3c2sc2ccccc23)cn1 [CX-5461]
The procedure, abridged:
as §1

Compound in test [3]: Cc1cnc(CNC(=O)c2c(=O)c3ccc(N4CCCN(C)CC4)nc3n3c2sc2ccccc23)cn1 [CX-5461] + COc1cc2c(Oc3ccc(NC(=O)C4(C(=O)Nc5ccc(F)cc5)CC4)cc3F)ccnc2cc1OCCCN1CCOCC1 [Foretinib] (partner 0.25 µM)
In a few lines: (§2)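 Lung cancer cell lines were seeded in 1536-well plates and dosed by pin tool the next day, with either a single drug or a fixed anchor-drug dose combined with five library-drug doses (not always all listed) spaced in √10 steps. Five days later, one step fixed the cells and stained their nuclei (final 0.05% Triton X-100, 1% formaldehyde, 1 ug/ml Hoechst), and nuclei were counted on 4× images. Relative viability is the nuclei count in treated wells divided by the count in vehicle wells, and each value is the median of duplicate plates.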

Compound in test [4]: O=C(Nc1cc(C(F)(F)F)cc(C(F)(F)F)c1)c1cc(Cl)ccc1O [IMD-0354] + CC(=O)c1c(C)c2cnc(Nc3ccc(N4CCNCC4)cn3)nc2n(C2CCCC2)c1=O [Palbociclib] (partner 0.5 µM)
The procedure, abridged:
as §2

Turning to UMC-11, the relative viability in test [1] (0.04 µM) worked out at 1.1; in test [1] (0.1265 µM) it was 1.04; in test [1] (0.4 µM) it was 0.551; in test [1] (1.265 µM), 0.224; in test [1] (4 µM) it was 0.271; in test [2] (0.01 µM) it was 1.09. Further, the relative viability in test [2] (0.03162 µM) worked out at 0.994; in test [2] (0.1 µM), 0.928; in test [2] (0.3162 µM), 0.909; in test [2] (1 µM) it was 0.382; in test [3] (first compound 0.01 µM), 1.02; in test [3] (first compound 0.03162 µM), 1.08. For the same cell line, the relative viability in test [3] (first compound 0.1 µM) is 0.906; in test [3] (first compound 0.3162 µM), 1.15; in test [3] (first compound 1 µM), 0.336; in test [4] (first compound 0.04 µM), 0.344; in test [4] (first compound 0.1265 µM) it was 0.303; in test [4] (first compound 0.4 µM), 0.323. Moreover, the relative viability in test [4] (first compound 1.265 µM) came to 0.215; in test [4] (first compound 4 µM), 0.18.
